“Also recorded” adds a separate entry of the source. Like-named read-outs stand apart in the source and are kept apart here.
Legend:
Format in all cases: cell-based, human
[1] = system: ADP-induced platelet aggregation; experiment: ADP-induced platelet aggregation in platelet-rich plasma (turbidimetric method of Born, aggregometer); settings: for IC50: ADP-induced aggregation, PRP, mean of three (*) or two determinations
Description: (§1) Unless otherwise provided below, the experimental procedures were performed according to the procedures provided in U.S. Pat. No. 5,049.550 (Zamecnik '550), the entire contents of which are incorporated herein by reference. Some alternative procedures (e.g., release reaction, PF3 assays) and a number of additional studies also are provided (e.g., cytoplasmic calcium mobilization, fibrinogen binding site, agonists other than ADP, platelet cAMP and distribution of CHCl-AP4 A into blood components). Blood was collected in a 0.1 volume of 3.8% sodium citrate from healthy human volunteers who had abstained from antiplatelet agents for at least 10 days. Platelet rich plasma (PRP) was separated by a gradual centrifugation and adjusted to 3.3×10^8 platelets per ml plasma. PRP has been utilized in the Examples unless otherwise stated.
An initial screening was performed for inhibitory effects of several agents (including, e.g., thio-CHCl-AP4 A and CHCl-AP4 A as reference agent)) on platelet aggregation induced by ADP. Platelet aggregation was measured with platelet-rich plasma (PKP) by the turbidimetric method of Born (J. Physiol. 162:67, 1962) in an aggregometer (Chrono-log, Model 530 VS). Platelet aggregation induced by 5 μM ADP in the absence or presence of 5 μM agents was examined. […] The IC50 value of the CHCl-AP4 A (reference agent) was consistent with the value reported previously (P. Zamecnik et al., Proc. Nat'l. Acad. Sci. USA 89:2370-2373 (1992)).

[2] = system: ADP and collagen induced platelet aggregation; experiment: Platelet aggregation in lumiaggregometer (ADP or collagen); settings: for IC50: Homo sapiens, Platelet, lumiaggregometer
Description: (§2) The effects of thio-CHCl-AP4 A and the reference agent on both ADP and collagen induced platelet aggregation, and release reaction were tested in a lumiaggregometer. Normal human PRP was separated from sodium […] anticoagulated (0.38%) blood. Platelet aggregation and release reaction induced by 5 μM ADP or 1 μg collagen/ml. The lumiaggregometer was equipped to assay both platelet aggregation and the luciferase reaction of ATP simultaneously a) in the absence of agent (control); and b) in the presence of various concentrations of thio-CHCl-AP4 A or CHCl-AP4 A. The measured amount of ATP released from the activated platelets by the agonist represents the release reaction. The luminescence produced by the luciferin-luciferase reaction was linear with respect to the amount of ATP released.

[3] = system: Platelet release reaction; experiment: Platelet release reaction (ATP, luciferin-luciferase, lumiaggregometer); settings: for IC50: Homo sapiens, Platelet, lumiaggregometer
Description: as §2

Platelet Factor 3 (PF3) = experiment: Platelet factor 3 (PF3) activation, Stypven clotting time; settings: for Clotting Time (Stypven), ADP-stimulated PF3 activity / Net Change of clotting time / activity at 10 µM: 10 μM agent, 10 μM ADP; for Clotting Time (Stypven), ADP-stimulated PF3 activity: mean of two, baseline 45.8, saline control 38.9; for Net Change of clotting time: saline control -6.9; for activity at 10 µM: Homo sapiens, Platelet, 5 min, saline control 100, read-out: % Change of clotting time
Description: PF3 activity of the platelets is enhanced by ADP stimulation and measured by the Stypven clotting time (P. Zamecnik et al., PNAS (USA) 89:2370-2373 (1992)). The data represent a mean of two experiments. Fresh normal human platelet-rich plasma (3×10^8 platelets per ml) was preincubated in the presence or absence of the agents (10 μM) at 37° C. for 5 min and then tested for PF3 activity of the platelets that was stimulated by 10 μM ADP.

[4] = system: Cytoplasmic Calcium Ion (Ca^++) Mobilization in platelets; experiment: Cytoplasmic calcium ion mobilization in platelets (Indo-1, flow cytometer); settings: 6.7 μM ADP
Description: as §1
An increment of cytoplasmic Ca^++ in the platelets represents an activated state. Indo-1 acetomethyl ester (Indo-1) commonly has been utilized as the reagent to detect intracellular free Ca^++. Indo-1 reacts with Ca^++ and produces fluorescence which can be monitored in a dual wavelength (408/485) flow cytometer (Coulter EPIC Systems). Platelets were incubated with Indo-1 at 37° C. for 45 min. Excess Indo-1 in the medium was removed by gel-filtration method. Indo-1-loaded platelets were then activated by 6.7 μM ADP in the absence or presence of thio-CHCl-AP4 A (3.3 μM) or CHCl-AP4 A (6.7 μM). Fluorescence intensity of the platelets was monitored and plotted against platelet number. The histograms generated from the plots were analyzed. Unstimulated platelets registered fluorescence intensity (FI) between 42 and 250 with a peak at 133 (base line control).

platelet aggregation = experiment: Platelet aggregation induced by ADP and agonists other than ADP; settings: for IC50: Homo sapiens, Platelet; for effect on collagen-induced aggregation: agonist collagen, in words; for effect on ristocetin-induced platelet aggregation: agonist ristocetin; for effect on thrombin-induced platelet aggregation: agonist thrombin
Description: as §1
The release reaction appears to be a unique response following platelet activation. ADP, among several platelet constituents, appears to play an important role in the enhancement of activation. We have examined the role of ADP that is released in platelet aggregation induced by other agonists including arachidonic acid, collagen, epinephrine, thrombin and ristocetin. Platelet aggregability induced by a given concentration of agonists was approximately 60-80% in absence of agents. […] This finding supports the above-described observations of the inhibitory effects of the agents on the release reaction.

[5] = system: ADP-induced platelet aggregability; experiment: Ability to aggregate of platelets exposed previously to the agents, resuspended in inhibitor-free plasma; settings: for activity at 25 µM: preincubated 25 μM agent
Description: as §1
We believe that the inhibition mechanism of AP4 A analogues involves competing with ADP for binding to the platelet purinoceptor. To test the stability and inhibitory effects of the bound agent, platelet-rich plasma anticoagulated with ACD solution was preincubated with 25 μM thio-CHCl-AP4 A or 50 μM CHCl-AP4 A at 22° C. for 30 minutes. Platelets isolated by gel-column filtration (2×10^8 cells/ml) or centrifugation (3×10^8cells/ml) were resuspended in the inhibitor-free plasma and ADP-induced aggregability was measured. The values represent a mean of three experiments for the series of gel-filtration separation and a mean of two experiments for the centrifugation separation.

[6] = system: ADP-induced platelet aggregation; experiment: Time-dependent effects on ADP-induced aggregation (stability of the agents by functional assay in PRP); settings: for ADP-induced aggregation: 10 μM ADP; for stability of inhibitory effect / agent in PRP: 37° C., up to 3 hours, in words
Description: as §1
To observe the stability of the agents by functional assay, PRP was incubated with 2.51 μM thio-CHCl-AP4 A or 5 μM CHCl-AP4 A at 37° C. for 3 hours. The concentrations of inhibiting agents used in this experiment were relatively low, especially for the thio compound. Samples taken at the times indicated were tested for ADP-induced (10 μM) aggregation.

[7] = agonist Arachidonic Acid (1 mM)

Structure (SMILES) | IC50 [1] [µM] | IC50 ([2]; agonist 5 μM ADP) [µM] | IC50 ([2]; agonist collagen 1 μg/ml) [µM] | IC50 ([3]; agonist 5 μM ADP) [µM] | IC50 ([3]; agonist collagen 1 μg/ml) [µM] | Clotting Time (Stypven), ADP-stimulated PF3 activity (Platelet Factor 3 (PF3)) [s] | Net Change of clotting time (Platelet Factor 3 (PF3)) | activity at 10 µM (Platelet Factor 3 (PF3)) [%] | IC50 (platelet aggregation; agonist ADP (5 μM)) [µM] | IC50 (platelet aggregation; [7]) [µM] | IC50 (platelet aggregation; agonist Collagen (μg)) [µM] | IC50 (platelet aggregation; agonist Epinephrine (10 μM)) [µM] | effect on collagen-induced aggregation (platelet aggregation) | effect on ristocetin-induced platelet aggregation (platelet aggregation) | effect on thrombin-induced platelet aggregation (platelet aggregation) | stability of inhibitory effect / agent in PRP [6] | other results
Nc1ncnc2c1ncn2[C@@H]1O[C@H](COP(=O)(O)OP(=O)(O)C(Cl)P(=O)(O)OP(=O)(O)OC[C@H]2O[C@@H](n3cnc4c(N)ncnc43)[C@H](O)[C@@H]2O)[C@@H](O)[C@H]1O (stereo partly drawn) [CHCl-AP4 A] | 3.28 | 14 | > 100 | 4.5 | 35 | 43.1 | -2.7 | 39.1 | 3.28 | 19 | > 100 | 24 | unaffected | Neither thio-CHCl-AP4 A nor CHCl-AP4 A affected | Neither thio-CHCl-AP4 A nor CHCl-AP4 A affected | becomes unstable when it is kept in PRP more than 60 minutes at 37 °C | effect on collagen-induced aggregation ([2]; agonist collagen, in words): not inhibited; effect on collagen-induced release reaction ([3]; agonist collagen, in words): inhibited; effect on ADP-induced Ca^++ mobilization ([4]; 6.7 μM CHCl-AP4 A): blocked completely; activity at 50 µM ([5]; Homo sapiens, Platelet, 0.5 h, centrifugation, 20 μM ADP, preincubated 50 μM agent, 22° C., 30 min, mean of two, read-out: Aggregability (% of control)): 92%; inhibition in the ability to aggregate following exposure to ADP ([5]; preincubated 50 μM CHCl-AP4 A): 8%; ADP-induced aggregation ([6]; 5 μM agent, 0 min in PRP at 37° C., without agent 82%): 13%; ADP-induced aggregation ([6]; 5 μM agent, 60 min in PRP at 37° C., without agent 69%): 31%; ADP-induced aggregation ([6]; 5 μM agent, 120 min in PRP at 37° C., without agent 59%): 47%; ADP-induced aggregation ([6]; 5 μM agent, 180 min in PRP at 37° C., without agent 43%): 42%
Nc1ncnc2c1ncn2[C@@H]1O[C@H](COP(O)(=S)OP(=O)(O)C(Cl)P(=O)(O)OP(O)(=S)OC[C@H]2O[C@@H](n3cnc4c(N)ncnc43)[C@H](O)[C@@H]2O)[C@@H](O)[C@H]1O (stereo partly drawn) [Thio-CHCl-AP4 A, P^1, P^4 -dithio -P^2 -P^3 monochloromethylene 5', 5'" diadenosine P^1, P^4 -tetraphosphate] | 0.81 | 1.6 | 9 | 0.7 | 1.7 | 44.5 | -1.3 | 18.8 | 0.81 | 9.12 | 9 | 5.25 | detectable inhibitory effect | Neither thio-CHCl-AP4 A nor CHCl-AP4 A affected | Neither thio-CHCl-AP4 A nor CHCl-AP4 A affected | very stable for at least a 3 hour period | in vitro platelet aggregation inhibitory activity relative to AP4 A and analogs ([1]; compared to AP4 A, known analogs, non-thio counterpart, in words, listed as Aps pCHClpps A): nearly an order of magnitude greater than the inhibitory activity of naturally-occurring AP4 A; also recorded: significantly greater than the activities of known AP4 A analogs; also recorded: significantly greater platelet aggregation inhibitory activity than that of its corresponding non-thio counterpart; inhibitory effect on ADP-stimulated PF3 activity (Platelet Factor 3 (PF3); compared to CHCl-AP4 A, in words): significantly greater than that of the non-thio reference agent; effect on ADP-induced Ca^++ mobilization ([4]; 3.3 μM thio-CHCl-AP4 A): blocked completely; activity at 25 µM ([5]; Homo sapiens, Platelet, 0.5 h, centrifugation, 20 μM ADP, 22° C., 30 min, mean of two, read-out: Aggregability (% of control)): 67%; activity at 25 µM ([5]; Homo sapiens, Platelet, 0.5 h, gel-filtration, 10 μM ADP, 22° C., 30 min, mean of three, read-out: Aggregability (% of control)): 78%; inhibition in the ability to aggregate following exposure to ADP ([5]; preincubated 25 μM thio-CHCl-AP4 A): 22-33%; ADP-induced aggregation ([6]; 2.5 μM agent, 0 min in PRP at 37° C., without agent 82%): 21%; ADP-induced aggregation ([6]; 2.5 μM agent, 60 min in PRP at 37° C., without agent 69%): 7%; ADP-induced aggregation ([6]; 2.5 μM agent, 120 min in PRP at 37° C., without agent 59%): 5%; ADP-induced aggregation ([6]; 2.5 μM agent, 180 min in PRP at 37° C., without agent 43%): 6%
